Test results from patent publication US11752125B2, “Anti-neuroinflammatory and protective compounds in Achillea fragrantissima” (THE STATE OF ISRAEL MINISTRY OF AGRICULTURE & RURAL …, priority 2013, dated 2023).

Assays:
Assay type in all cases: cell-based, rat
[1] = tested on: IL-1β; assay: IL-1β secretion from LPS-stimulated microglial cells (ELISA); conditions: LPS 100 ng/mL, 24 h
Protocol: (§1) Cultures of primary rat microglial cells were prepared from cerebral cortices of 1-2 day-old neonatal Wistar rats as described. Microglial cells were seeded at 24-well plastic plates at 1×10^5/well in RPMI-1640 containing 2% FBS, 2 mM glutamine, 100 U/mL penicillin, 100 µg/mL streptomycin, 1 mM sodium pyruvate, and 50 μM β-mercaptoethanol. Cells were cultured for 36 h before treatments. The research was conducted in accordance with the NIH guide for the care and use of laboratory animals, and was approved by the Institutional Animal Care and Use Committee of The Volcani Center, Agricultural Research Organization (IL-135/07, approval date Apr. 11, 2007). All efforts were made to minimize animal suffering, and to reduce the number of animals used.
For IL-1β measurements, 3.5×10^4 cells/well were plated on a 24-well tissue culture plate. After 24 h of incubation in DMEM containing 10% FBS, cells were stimulated with LPS (100 ng/mL) and treated with different concentrations of achillolide A. Conditioned media were collected twenty four hours later, and were tested with a rat IL1β ELISA kit (Novus Biologicals; CO, USA), according to the manufacturer's instructions.
2. Plate microglial cells (3.5×10^4 cells/well) on a 24-well tissue culture plate, in DMEM containing 10% FBS, 2 mM glutamine, 100 U/ml penicillin and 100 micrograms/mL streptomycin;
Microglial cells were treated with different concentrations of TTF, followed by stimulation with LPS (100 ng/mL). After 24 h, conditioned media were collected and tested for cytokine levels by ELISA. Cell viability was determined using the crystal violet assay (FIG. 9C). Values represent the means±SEM (n=4 for each treatment).
Microglial cells were treated with 20 μg/mL of achillolide A, followed by stimulation with LPS (4.5 ng/mL). After 5 h the levels of the indicated transcripts were measured by quantitative real-time PCR and the relative quantity (RQ) of the different transcripts were determined. […] The results are expressed as percentages relative to LPS-stimulated cells. […]

[2] = tested on: microglial cells; assay: Cellular antioxidant activity (ABAP peroxyl radicals) in microglial cells; conditions: ABAP 0.6 mM, dexamethasone at nanomolar concentrations
Protocol: Intracellular ROS production was detected using the non-fluorescent cell permeating compound, 2′7′-dichlorofluorescein diacetate (DCF-DA). DCF-DA is hydrolyzed by intracellular esterases and then oxidized by ROS to a fluorescent compound 2′-7′-DCF. Peroxyl radicals are generated by thermolysis of 2,2′-Azobis(amidinopropane) (ABAP) at physiological temperature. ABAP decomposes at approximately 1.36×10^−6s^−1 at 37° C., producing at most 1×10^12 radicals/mL/s. Microglial cells (130,000 cells/well) were plated in DMEM containing 2% FBS, 8.4 mM HEPES, 2 mM glutamine, 100 U/mL penicillin and 100 μg/mL streptomycin, onto 24 wells plates. In order to measure the ability of achillolide A to enter the cells and prevent the formation of DCF by ABAP-generated peroxyl radicals, cells were incubated for 1 h with achillolide A. Then cells were preloaded with DCF-DA for 30 min, washed twice with PBS, and ABAP (0.6 mM final concentration) was then added. The fluorescence, which indicates ROS levels, was measured in a plate reader with excitation at 485 nm and emission at 520 nm.
Cells were incubated for 1 h with different concentrations of achillolide A. Then, the cells were pre-loaded with DCF-DA for 30 min and washed. ABAP (0.6 mM) was added to the culture and ROS levels were measured at the indicated time points. […]

[3] = tested on: glutamate; assay: Glutamate secretion from LPS-activated microglial cells; conditions: LPS 100 ng/mL, 20 h
Protocol: For glutamate measurements, 3.5×10^4 cells/well were plated on a 24-well tissue culture plate. After 24 h of incubation in DMEM containing 10% FBS, cells were stimulated with LPS (100 ng/mL) and treated with different concentrations of achillolide A. Conditioned media were collected twenty hours later, and were tested for glutamate levels using a colorimetric enzymatic assay kit (glutamate assay kit, BioVision, CA, USA) according to the manufacturer's instructions. 7. Measure the levels of glutamate using a colorimetric enzymatic assay kit (glutamate assay kit, BioVision, CA, USA) according to the manufacturer's instructions. Microglial cells were treated with the indicated concentrations of achillolide A, followed by stimulation with LPS (100 ng/mL). After 20 h, conditioned media were collected and tested for glutamate levels by a commercial kit. Values represent the means±SEM (n=4 for each treatment). ** p<0.01; *** p<0.001, compared to LPS-stimulated cells.

[4] = tested on: NO; assay: NO (nitrite) production by LPS-activated microglial cells (Griess); conditions: LPS 4.5 ng/mL, 20 h
Protocol: as §1
For NO measurements, 1×10^5 microglial cells/well were plated in a 24-well tissue culture plate. Cells were stimulated with LPS (4.5 ng/mL) and concomitantly treated with achillolide A or a reference drug. NO levels in the culture medium were estimated with Griess reagent.
3. Activate microglial cells with lipopolysaccharide (LPS, 4.5 nanograms/mL);
In FIG. 21 A, microglial cells were treated with different concentrations of achillolide A, dexamethasone or memantine (as reference drugs) and were concomitantly activated by LPS (4.5 ng/mL) for 20 h. Cell conditioned supernatants were collected, and the levels of NO were measured using Griess reaction. Cytotoxicity was measured using the LDH method (FIG. 21B). Values represent the mean±SEM (n=12 for each treatment). ** p<0.01; ***p<0.001 relative to cells that were treated to LPS only.

Compound: C[C@@H]1C[C@H]2[C@@H]3CCC4=CC(=O)C=C[C@]4(C)[C@@]3(F)[C@@H](O)C[C@]2(C)[C@@]1(O)C(=O)CO [dexamethasone, reference compound]
- inhibition of IL-1β secretion [1]: 85%
- inhibition of the ABAP-induced increase in ROS fluorescence [2]: 75%
- inhibition of the LPS-induced levels of secreted glutamate [3]: 90%
- inhibition of NO produced by the activated cells [4]: 90%
